Measured values: PubChem BioAssay AID248 (DTP/NCI, 2004)
Where “and” joins values, the source holds several entries; their conditions need not be identical. Identical values can stand only once. Toxic doses and inconclusive results are not listed. Cut-off read from the data, not from the text of the source: active = T/C of 150% or more; inactive = T/C below 125%. Square brackets hold non-standard residues; d marks the D form. Peptide text beside a SMILES is read from it. * marks the point of attachment. Arg(NO2) = N=C(NCCC[CH](N)C(=O)O)N[N+](=O)[O-]; Cbz = O=C(OCc1ccccc1)*

Test system: L1210 leukemia ip in BDF1 mice, survival T/C
Assay: NCI In Vivo Anticancer Drug Screen. Data for tumor model L1210 Leukemia (intraperitoneal) in B6D2F1 (BDF1) mice
Details: endpoint: mean survival time, higher = longer survival
How it was run: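 Ratio derived from survival: compound-dosed mice over vehicle-dosed mice, all bearing a transplantable tumor.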

[1] = dose: 100.0 mg/kg/injection, schedule: Q01DX009 (ip), vehicle: saline with Tween-80
[2] = dose: 100.0 mg/kg/injection, schedule: Q04DX003 (ip), vehicle: saline with Tween-80
[3] = dose: 200.0 mg/kg/injection, schedule: Q04DX003 (ip), vehicle: saline with Tween-80
[4] = dose: 400.0 mg/kg/injection, schedule: Q04DX003 (ip), vehicle: saline with Tween-80
[5] = dose: 100.0 mg/kg/injection, schedule: Q01DX001 (ip), vehicle: other
[6] = dose: 200.0 mg/kg/injection, schedule: Q01DX001 (ip), vehicle: other
[7] = dose: 400.0 mg/kg/injection, schedule: Q01DX001 (ip), vehicle: other
[8] = dose: 100.0 mg/kg/injection, schedule: Q01DX001 (ip), vehicle: saline
[9] = dose: 200.0 mg/kg/injection, schedule: Q01DX001 (ip), vehicle: saline
[10] = dose: 400.0 mg/kg/injection, schedule: Q01DX001 (ip), vehicle: saline
[11] = dose: 200.0 mg/kg/injection, schedule: Q04DX002 (ip), vehicle: Klucel (hydroxypropylcellulose) (HPC)
[12] = dose: 100.0 mg/kg/injection, schedule: Q04DX003 (ip), vehicle: Klucel (hydroxypropylcellulose) (HPC)
[13] = dose: 200.0 mg/kg/injection, schedule: Q04DX003 (ip), vehicle: Klucel (hydroxypropylcellulose) (HPC)
[14] = dose: 400.0 mg/kg/injection, schedule: Q04DX003 (ip), vehicle: Klucel (hydroxypropylcellulose) (HPC)
[15] = dose: 100.0 mg/kg/injection, schedule: Q04DX002 (ip), vehicle: saline with Tween-80
[16] = dose: 200.0 mg/kg/injection, schedule: Q04DX002 (ip), vehicle: saline with Tween-80
[17] = dose: 100.0 mg/kg/injection, schedule: Q01DX009 (ip), vehicle: Klucel (hydroxypropylcellulose) (HPC)
[18] = dose: 200.0 mg/kg/injection, schedule: Q01DX009 (ip), vehicle: Klucel (hydroxypropylcellulose) (HPC)
[19] = dose: 75.0 mg/kg/injection, schedule: Q01DX001 (ip), vehicle: saline
[20] = dose: 150.0 mg/kg/injection, schedule: Q01DX001 (ip), vehicle: saline
[21] = dose: 300.0 mg/kg/injection, schedule: Q01DX001 (ip), vehicle: saline

Measured: T/C

NC(=S)N/N=C\C(c1ccccc1)c1ccccc1
inactive: [1] 98 % of control | [2] 96 % of control | dose: 200.0 mg/kg/injection, schedule: Q01DX009 (ip), vehicle: saline with Tween-80 94 % of control | [3] 95 % of control | dose: 400.0 mg/kg/injection, schedule: Q01DX009 (ip), vehicle: saline with Tween-80 96 % of control | [4] 104 % of control

COc1ccc(C(=O)Nc2cc(Cl)ccc2OC)cc1
inactive: [5] 101 % of control | dose: 100.0 mg/kg/injection, schedule: Q01DX009 (ip), vehicle: other 98 % of control and 102 % of control | dose: 100.0 mg/kg/injection, schedule: Q04DX002 (ip), vehicle: carboxymethylcellulose (CMC) 93 % of control and 103 % of control | dose: 100.0 mg/kg/injection, schedule: Q04DX003 (ip), vehicle: other 97 % of control | [6] 93 % of control | dose: 200.0 mg/kg/injection, schedule: Q01DX009 (ip), vehicle: other 100 % of control and 109 % of control | dose: 200.0 mg/kg/injection, schedule: Q04DX002 (ip), vehicle: carboxymethylcellulose (CMC) 96 % of control and 116 % of control | dose: 200.0 mg/kg/injection, schedule: Q04DX003 (ip), vehicle: other 106 % of control | [7] 97 % of control | dose: 400.0 mg/kg/injection, schedule: Q01DX009 (ip), vehicle: other 94 % of control and 88 % of control | dose: 400.0 mg/kg/injection, schedule: Q04DX002 (ip), vehicle: carboxymethylcellulose (CMC) 103 % of control and 104 % of control | dose: 400.0 mg/kg/injection, schedule: Q04DX003 (ip), vehicle: other 105 % of control

COC(=O)C(CCCN=C(N)N[N+](=O)[O-])NC(=O)C(Cc1ccccc1)NC(=O)C1CCCN1C(=O)OCc1ccccc1 (stereo not drawn) (Cbz-Pro-Phe-[Arg(NO2)]-OMe; configuration not given here)
inactive: [8] 90 % of control | [9] 96 % of control | [10] 92 % of control

CCCCCCNP(=O)(OCC)OCC
inactive: dose: 50.0 mg/kg/injection, schedule: Q01DX001 (ip), vehicle: carboxymethylcellulose (CMC) 95 % of control | dose: 100.0 mg/kg/injection, schedule: Q01DX001 (ip), vehicle: carboxymethylcellulose (CMC) 93 % of control | dose: 200.0 mg/kg/injection, schedule: Q01DX001 (ip), vehicle: carboxymethylcellulose (CMC) 101 % of control

CN(C)CCCC(=O)O
inactive: dose: 100.0 mg/kg/injection, schedule: Q01DX009 (ip), vehicle: saline 89 % of control | [2] 106 % of control | dose: 200.0 mg/kg/injection, schedule: Q01DX009 (ip), vehicle: saline 97 % of control | [3] 95 % of control | dose: 400.0 mg/kg/injection, schedule: Q01DX009 (ip), vehicle: saline 95 % of control | [4] 88 % of control

O=C(Nc1cccc(C2=NCCN2)c1)c1ccc(N=Nc2ccc(C(=O)Nc3cccc(C4=NCCN4)c3)cc2)cc1
inactive: dose: 93.0 mg/kg/injection, schedule: Q01DX Z (ip), vehicle: water 93 % of control | dose: 186.0 mg/kg/injection, schedule: Q01DX Z (ip), vehicle: water 100 % of control

O=C(NCCc1nc(C(=O)O)cs1)c1ccccc1
inactive: [5] 98 % of control | dose: 100.0 mg/kg/injection, schedule: Q01DX009 (ip), vehicle: gum acacia 99 % of control | dose: 100.0 mg/kg/injection, schedule: Q04DX003 (ip), vehicle: gum acacia 103 % of control | [6] 101 % of control | dose: 200.0 mg/kg/injection, schedule: Q04DX003 (ip), vehicle: gum acacia 98 % of control | [7] 102 % of control | dose: 400.0 mg/kg/injection, schedule: Q04DX003 (ip), vehicle: gum acacia 97 % of control

COC(=O)C(Cc1ccccc1)NC(=O)C(COC1OC(COC(C)=O)C(OC(C)=O)C(OC(C)=O)C1NC(C)=O)NC(=O)OCc1ccccc1 (stereo not drawn)
inactive: dose: 50.0 mg/kg/injection, schedule: Q04DX002 (ip), vehicle: Klucel (hydroxypropylcellulose) (HPC) 101 % of control | dose: 100.0 mg/kg/injection, schedule: Q04DX002 (ip), vehicle: Klucel (hydroxypropylcellulose) (HPC) 104 % of control | [11] 101 % of control

NC(=NCc1ccccc1)c1ncn(C2CCCC2)c1N
inactive: dose: 12.5 mg/kg/injection, schedule: Q01DX001 (ip), vehicle: Klucel (hydroxypropylcellulose) (HPC) 103 % of control | dose: 25.0 mg/kg/injection, schedule: Q01DX001 (ip), vehicle: Klucel (hydroxypropylcellulose) (HPC) 102 % of control | dose: 50.0 mg/kg/injection, schedule: Q01DX001 (ip), vehicle: Klucel (hydroxypropylcellulose) (HPC) 96 % of control

COC1OCC2OC(C)(C)OC2C1OS(C)(=O)=O (stereo not drawn)
inactive: [8] 107 % of control | [9] 112 % of control | [10] 97 % of control

Clc1ccccc1CC12CCCCC1N2 (stereo not drawn)
inactive: [12] 103 % of control | [13] 90 % of control | [14] 103 % of control

Clc1ncnc2ccccc12
inactive: dose: 100.0 mg/kg/injection, schedule: Q01DX001 (ip), vehicle: Klucel (hydroxypropylcellulose) (HPC) 94 % of control | dose: 200.0 mg/kg/injection, schedule: Q01DX001 (ip), vehicle: Klucel (hydroxypropylcellulose) (HPC) 95 % of control

CNC(=S)Nc1ccccc1
inactive: dose: 100.0 mg/kg/injection, schedule: Q04DX003 (ip), vehicle: carboxymethylcellulose (CMC) 95 % of control | dose: 200.0 mg/kg/injection, schedule: Q04DX003 (ip), vehicle: carboxymethylcellulose (CMC) 96 % of control

CSc1ncnc2c1ncn2N(CC1CO1)C(C)=O (stereo not drawn)
inactive: [15] 91 % of control | [16] 91 % of control | dose: 400.0 mg/kg/injection, schedule: Q04DX002 (ip), vehicle: saline with Tween-80 95 % of control

CCCC(=O)Nc1cc(OC)ccc1OC
inactive: [17] 106 % of control | [18] 97 % of control

O=C(CCCC(=O)N/N=C/c1cc(Cl)cc(Cl)c1O)N/N=C\c1cc(Cl)cc(Cl)c1O
inactive: dose: 50.0 mg/kg/injection, schedule: Q01DX001 (ip), vehicle: saline 100 % of control | [8] 97 % of control | [9] 100 % of control | [10] 97 % of control

COc1ccc(OC)c(NC(=O)Nc2ccccc2C(N)=O)c1
inactive: [12] 97 % of control | [13] 95 % of control | [14] 93 % of control

COc1cc(NC(=O)CC(C)=O)cc2c(C)cc(=O)n(C)c12
inactive: [17] 101 % of control | [12] 106 % of control | [18] 98 % of control | [13] 89 % of control | dose: 400.0 mg/kg/injection, schedule: Q01DX009 (ip), vehicle: Klucel (hydroxypropylcellulose) (HPC) 91 % of control | [14] 94 % of control

CCCCCCC1CCC(CCCCCCCC(=O)N2CCN(C)CC2)C(C/C=C/CCCCCCCC(=O)N2CCN(C)CC2)C1CCCCC (stereo not drawn)
inactive: [19] 94 % of control | [20] 103 % of control | [21] 95 % of control

Cc1c2ccccc2c(C)c2c1cc(C(=O)O)c1ccccc12
inactive: [11] 115 % of control | dose: 400.0 mg/kg/injection, schedule: Q04DX002 (ip), vehicle: Klucel (hydroxypropylcellulose) (HPC) 101 % of control

COC(=O)/C=C(\C(=O)OC)N1CCCCC1
inactive: dose: 18.75 mg/kg/injection, schedule: Q01DX009 (ip), vehicle: saline with Tween-80 98 % of control | dose: 37.5 mg/kg/injection, schedule: Q01DX009 (ip), vehicle: saline with Tween-80 101 % of control | dose: 75.0 mg/kg/injection, schedule: Q01DX009 (ip), vehicle: saline with Tween-80 91 % of control | [1] 107 % of control

COC(=O)c1cc([N+](=O)[O-])cc([N+](=O)[O-])c1O
inactive: dose: 50.0 mg/kg/injection, schedule: Q01DX009 (ip), vehicle: Klucel (hydroxypropylcellulose) (HPC) 87 % of control | [15] 100 % of control | [16] 105 % of control

CCCCCCN(CCCCCC)C(=S)[S-].CCCCCCN(CCCCCC)C(=S)[S-].[Zn]
inactive: [19] 112 % of control | [20] 104 % of control | [21] 103 % of control
